# Entries after “also recorded” stand apart in the source; their conditions may differ.
# Key:
# [1] = target: T1, ABL1(Q252H)-phosphorylated (Homo sapiens, UniProt P00519, Q252H); test: KINOMEscan; format: binding; conditions: 1 μM of compound 4; read-out: POC
# T1 construct: purchased Eurofins DiscoverX Corporation
# ACVR1B = target: T2, ACVR1B (Homo sapiens, UniProt P36896); test: KINOMEscan; format: binding; conditions: 1 μM of compound 4; read-out: POC
# T2 construct: purchased Eurofins DiscoverX Corporation
# T2 sequence (P36896 24-505): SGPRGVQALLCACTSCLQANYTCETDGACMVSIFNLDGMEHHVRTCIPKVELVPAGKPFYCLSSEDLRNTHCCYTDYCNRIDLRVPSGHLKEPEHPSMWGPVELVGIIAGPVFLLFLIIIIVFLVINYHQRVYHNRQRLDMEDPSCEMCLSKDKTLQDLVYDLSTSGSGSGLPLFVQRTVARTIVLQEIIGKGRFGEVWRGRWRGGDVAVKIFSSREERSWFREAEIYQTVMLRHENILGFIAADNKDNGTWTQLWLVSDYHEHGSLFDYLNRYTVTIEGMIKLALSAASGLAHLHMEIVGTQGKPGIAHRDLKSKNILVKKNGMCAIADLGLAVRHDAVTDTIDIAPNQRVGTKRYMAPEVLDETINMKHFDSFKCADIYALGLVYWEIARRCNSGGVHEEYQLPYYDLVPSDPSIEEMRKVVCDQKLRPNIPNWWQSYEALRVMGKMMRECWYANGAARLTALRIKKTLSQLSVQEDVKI
# ALK(C1156Y) = ALK(C1156Y) (Homo sapiens, UniProt Q9UM73, C1156Y); test: KINOMEscan; format: binding; conditions: 1 μM of compound 4; read-out: POC
# BMPR1A = BMPR1A (Homo sapiens, UniProt P36894); test: KINOMEscan; format: binding; conditions: 1 μM of compound 4; read-out: POC
# CAMKK2 = CAMKK2 (Homo sapiens, UniProt Q96RR4); test: KINOMEscan; format: binding; conditions: 1 μM of compound 4; read-out: POC
# CIT = CIT (Homo sapiens, UniProt O14578); test: KINOMEscan; format: binding; conditions: 1 μM of compound 4; read-out: POC
# CLK4 = CLK4 (Homo sapiens, UniProt Q9HAZ1); test: KINOMEscan; format: binding; conditions: 1 μM of compound 4; read-out: POC
# Chain of CLK4 (Q9HAZ1 whole entry): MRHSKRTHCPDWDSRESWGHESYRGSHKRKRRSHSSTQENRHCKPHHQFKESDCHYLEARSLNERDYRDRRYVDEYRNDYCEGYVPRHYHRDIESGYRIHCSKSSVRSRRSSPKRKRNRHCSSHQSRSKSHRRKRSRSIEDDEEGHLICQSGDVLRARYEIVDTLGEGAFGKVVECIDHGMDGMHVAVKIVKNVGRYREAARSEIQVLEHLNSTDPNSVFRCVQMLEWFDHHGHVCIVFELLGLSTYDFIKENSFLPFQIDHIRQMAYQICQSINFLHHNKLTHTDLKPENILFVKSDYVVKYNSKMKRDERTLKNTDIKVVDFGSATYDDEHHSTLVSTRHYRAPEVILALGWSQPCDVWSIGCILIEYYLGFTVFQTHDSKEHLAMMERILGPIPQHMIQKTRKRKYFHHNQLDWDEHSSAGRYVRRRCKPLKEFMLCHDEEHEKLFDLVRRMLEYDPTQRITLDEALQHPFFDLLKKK
# CSNK1A1 = CSNK1A1 (Homo sapiens, UniProt P48729); test: KINOMEscan; format: binding; conditions: 1 μM of compound 4; read-out: POC
# Chain of CSNK1A1 (P48729 whole entry): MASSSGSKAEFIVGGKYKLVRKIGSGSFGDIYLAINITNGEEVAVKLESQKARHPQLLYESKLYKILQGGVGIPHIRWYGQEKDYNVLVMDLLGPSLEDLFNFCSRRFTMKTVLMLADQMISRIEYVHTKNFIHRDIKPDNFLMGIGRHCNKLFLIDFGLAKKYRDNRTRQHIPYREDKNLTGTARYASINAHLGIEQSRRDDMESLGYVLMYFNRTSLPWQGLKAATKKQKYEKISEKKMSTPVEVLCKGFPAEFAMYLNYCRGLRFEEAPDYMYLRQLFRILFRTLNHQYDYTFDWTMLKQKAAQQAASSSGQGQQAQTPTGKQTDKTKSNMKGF
# DAPK2 = DAPK2 (Homo sapiens, UniProt Q9UIK4); test: KINOMEscan; format: binding; conditions: 1 μM of compound 4; read-out: POC
# Chain of DAPK2 (Q9UIK4 whole entry): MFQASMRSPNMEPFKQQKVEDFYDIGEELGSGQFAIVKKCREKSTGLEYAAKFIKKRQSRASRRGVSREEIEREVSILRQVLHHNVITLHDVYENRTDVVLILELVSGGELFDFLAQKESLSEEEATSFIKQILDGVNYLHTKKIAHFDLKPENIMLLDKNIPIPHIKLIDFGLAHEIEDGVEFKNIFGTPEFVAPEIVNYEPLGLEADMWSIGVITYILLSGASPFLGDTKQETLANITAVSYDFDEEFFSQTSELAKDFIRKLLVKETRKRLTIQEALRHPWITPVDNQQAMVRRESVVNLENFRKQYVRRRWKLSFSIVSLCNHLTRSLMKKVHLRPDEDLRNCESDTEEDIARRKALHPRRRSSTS
# DCAMKL2 = DCAMKL2 (Homo sapiens, UniProt Q8N568); test: KINOMEscan; format: binding; conditions: 1 μM of compound 4; read-out: POC
# EPHA8 = target: T3, EPHA8 (Homo sapiens, UniProt P29322); test: KINOMEscan; format: binding; conditions: 1 μM of compound 4; read-out: POC
# T3 construct: purchased Eurofins DiscoverX (KINOMEscan service)
# EPHB4 = target: T4, EPHB4 (Homo sapiens, UniProt P54760); test: KINOMEscan; format: binding; conditions: 1 μM of compound 4; read-out: POC
# T4 construct: purchased Eurofins DiscoverX (KINOMEscan service)
# GRK2 = target: T5, GRK2 (Homo sapiens, UniProt P25098); test: KINOMEscan; format: binding; conditions: 1 μM of compound 4; read-out: POC
# T5 construct: purchased Eurofins DiscoverX Corporation
# IKK-epsilon = IKK-epsilon (Homo sapiens, UniProt Q14164); test: KINOMEscan; format: binding; conditions: 1 μM of compound 4; read-out: POC
# Chain of IKK-epsilon (Q14164 whole entry): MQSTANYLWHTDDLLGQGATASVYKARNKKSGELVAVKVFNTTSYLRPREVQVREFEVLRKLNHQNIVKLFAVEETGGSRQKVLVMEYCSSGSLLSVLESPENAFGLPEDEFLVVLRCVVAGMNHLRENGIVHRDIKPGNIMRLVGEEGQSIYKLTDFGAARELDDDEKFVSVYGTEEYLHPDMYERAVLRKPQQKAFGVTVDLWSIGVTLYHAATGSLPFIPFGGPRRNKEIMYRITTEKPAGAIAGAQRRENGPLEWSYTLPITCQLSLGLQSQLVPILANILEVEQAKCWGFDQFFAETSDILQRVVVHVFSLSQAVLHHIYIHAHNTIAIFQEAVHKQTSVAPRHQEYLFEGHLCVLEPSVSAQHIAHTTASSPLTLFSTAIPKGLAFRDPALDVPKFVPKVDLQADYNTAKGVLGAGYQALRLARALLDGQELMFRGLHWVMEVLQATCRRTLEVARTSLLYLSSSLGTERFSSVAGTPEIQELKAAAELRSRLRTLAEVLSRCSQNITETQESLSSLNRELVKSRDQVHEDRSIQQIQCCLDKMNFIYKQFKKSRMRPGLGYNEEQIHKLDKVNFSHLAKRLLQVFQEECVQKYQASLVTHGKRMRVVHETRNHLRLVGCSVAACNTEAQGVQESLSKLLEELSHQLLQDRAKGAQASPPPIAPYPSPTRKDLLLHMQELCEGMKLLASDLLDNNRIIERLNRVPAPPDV
# INSRR = INSRR (Homo sapiens, UniProt P14616); test: KINOMEscan; format: binding; conditions: 1 μM of compound 4; read-out: POC
# LOK = LOK (Homo sapiens, UniProt O94804); test: KINOMEscan; format: binding; conditions: 1 μM of compound 4; read-out: POC
# LRRK2(G2019S) = LRRK2(G2019S) (Homo sapiens, UniProt Q5S007, G2019S); test: KINOMEscan; format: binding; conditions: 1 μM of compound 4; read-out: POC
# MAPKAPK2 = MAPKAPK2 (Homo sapiens, UniProt P49137); test: KINOMEscan; format: binding; conditions: 1 μM of compound 4; read-out: POC
# Chain of MAPKAPK2 (P49137 whole entry): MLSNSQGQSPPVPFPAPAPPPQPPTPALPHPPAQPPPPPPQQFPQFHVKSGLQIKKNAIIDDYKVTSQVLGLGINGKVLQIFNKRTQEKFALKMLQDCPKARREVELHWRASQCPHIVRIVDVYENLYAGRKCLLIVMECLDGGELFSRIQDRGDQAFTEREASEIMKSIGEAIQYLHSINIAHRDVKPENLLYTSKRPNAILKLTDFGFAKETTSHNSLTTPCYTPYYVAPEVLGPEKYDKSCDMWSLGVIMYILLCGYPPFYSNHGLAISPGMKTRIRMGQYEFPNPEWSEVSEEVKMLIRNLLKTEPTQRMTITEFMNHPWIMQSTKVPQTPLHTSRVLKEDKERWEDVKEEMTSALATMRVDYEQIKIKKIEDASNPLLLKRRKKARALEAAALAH
# MLK3 = MLK3 (Homo sapiens, UniProt Q16584); test: KINOMEscan; format: binding; conditions: 1 μM of compound 4; read-out: POC
# NIK = target: T6, NIK (Homo sapiens, UniProt Q99558); test: KINOMEscan; format: binding; conditions: 1 μM of compound 4; read-out: POC
# T6 construct: purchased Eurofins DiscoverX Corporation (KINOMEscan)
# PRKD1 = PRKD1 (Homo sapiens, UniProt Q15139); test: KINOMEscan; format: binding; conditions: 1 μM of compound 4; read-out: POC
# ROS1 = target: T7, ROS1 (Homo sapiens, UniProt P08922); test: KINOMEscan; format: binding; conditions: 1 μM of compound 4; read-out: POC
# T7 construct: purchased Eurofins DiscoverX Corporation (KINOMEscan screening service)
# [2] = target: T8, RPS6KA5(Kin.Dom.1-N-terminal) (Homo sapiens, UniProt O75582); test: KINOMEscan; format: binding; conditions: 1 μM of compound 4; read-out: POC
# T8 construct: RPS6KA5(Kin.Dom.1-N-terminal); purchased Eurofins DiscoverX Corporation (KINOMEscan screening service)
# T8 sequence (O75582 49-318 limits assumed): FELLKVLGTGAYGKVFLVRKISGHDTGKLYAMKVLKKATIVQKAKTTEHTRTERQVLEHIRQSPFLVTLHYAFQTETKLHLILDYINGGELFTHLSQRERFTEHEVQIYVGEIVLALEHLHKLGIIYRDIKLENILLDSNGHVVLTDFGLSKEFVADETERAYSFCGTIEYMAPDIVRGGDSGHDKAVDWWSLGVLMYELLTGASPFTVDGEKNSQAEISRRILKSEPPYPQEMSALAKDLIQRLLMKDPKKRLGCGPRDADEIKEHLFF
# [3] = target: T9, RSK3(Kin.Dom.1-N-terminal) (Homo sapiens, UniProt Q15349); test: KINOMEscan; format: binding; conditions: 1 μM of compound 4; read-out: POC
# T9 construct: RSK3(Kin.Dom.1-N-terminal); purchased Eurofins DiscoverX (KINOMEscan service)
# T9 sequence (Q15349 59-318 limits assumed): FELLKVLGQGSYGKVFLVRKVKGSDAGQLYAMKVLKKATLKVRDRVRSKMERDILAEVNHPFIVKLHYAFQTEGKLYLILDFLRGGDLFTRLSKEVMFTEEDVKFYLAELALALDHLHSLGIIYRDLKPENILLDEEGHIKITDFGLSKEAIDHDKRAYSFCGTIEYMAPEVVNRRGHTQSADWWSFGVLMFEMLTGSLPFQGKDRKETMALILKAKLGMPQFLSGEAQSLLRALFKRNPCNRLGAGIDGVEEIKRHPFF
# S6K1 = target: T10, S6K1 (Homo sapiens, UniProt P23443); test: KINOMEscan; format: binding; conditions: 1 μM of compound 4; read-out: POC
# T10 construct: purchased Eurofins DiscoverX (KINOMEscan service)
# SRMS = target: T11, SRMS (Homo sapiens, UniProt Q9H3Y6); test: KINOMEscan; format: binding; conditions: 1 μM of compound 4; read-out: POC
# T11 construct: purchased Eurofins DiscoverX (KINOMEscan service)
# T11 sequence (Q9H3Y6 whole entry): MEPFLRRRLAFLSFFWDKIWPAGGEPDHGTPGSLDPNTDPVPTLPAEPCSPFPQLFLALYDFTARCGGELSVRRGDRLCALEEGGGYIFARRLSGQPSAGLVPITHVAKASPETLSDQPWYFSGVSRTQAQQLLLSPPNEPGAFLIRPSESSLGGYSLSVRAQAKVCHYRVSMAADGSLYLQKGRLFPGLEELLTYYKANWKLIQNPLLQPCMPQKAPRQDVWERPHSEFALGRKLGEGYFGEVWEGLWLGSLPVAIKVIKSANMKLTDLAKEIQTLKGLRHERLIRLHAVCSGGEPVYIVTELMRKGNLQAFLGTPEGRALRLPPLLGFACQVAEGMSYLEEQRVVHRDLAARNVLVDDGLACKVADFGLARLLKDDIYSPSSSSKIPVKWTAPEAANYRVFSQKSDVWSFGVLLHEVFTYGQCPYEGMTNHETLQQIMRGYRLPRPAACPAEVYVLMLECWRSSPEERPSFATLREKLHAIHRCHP
# [4] = target: T12, TYK2(JH2domain-pseudokinase) (Homo sapiens, UniProt P29597); test: KINOMEscan; format: binding; conditions: 1 μM of compound 4; read-out: POC
# T12 construct: TYK2(JH2domain-pseudokinase); purchased Eurofins DiscoverX
# WEE1 = target: T13, WEE1 (Homo sapiens, UniProt P30291); test: KINOMEscan; format: binding; conditions: 1 μM of compound 4; read-out: POC
# T13 construct: purchased Eurofins DiscoverX
# T13 sequence (P30291 whole entry): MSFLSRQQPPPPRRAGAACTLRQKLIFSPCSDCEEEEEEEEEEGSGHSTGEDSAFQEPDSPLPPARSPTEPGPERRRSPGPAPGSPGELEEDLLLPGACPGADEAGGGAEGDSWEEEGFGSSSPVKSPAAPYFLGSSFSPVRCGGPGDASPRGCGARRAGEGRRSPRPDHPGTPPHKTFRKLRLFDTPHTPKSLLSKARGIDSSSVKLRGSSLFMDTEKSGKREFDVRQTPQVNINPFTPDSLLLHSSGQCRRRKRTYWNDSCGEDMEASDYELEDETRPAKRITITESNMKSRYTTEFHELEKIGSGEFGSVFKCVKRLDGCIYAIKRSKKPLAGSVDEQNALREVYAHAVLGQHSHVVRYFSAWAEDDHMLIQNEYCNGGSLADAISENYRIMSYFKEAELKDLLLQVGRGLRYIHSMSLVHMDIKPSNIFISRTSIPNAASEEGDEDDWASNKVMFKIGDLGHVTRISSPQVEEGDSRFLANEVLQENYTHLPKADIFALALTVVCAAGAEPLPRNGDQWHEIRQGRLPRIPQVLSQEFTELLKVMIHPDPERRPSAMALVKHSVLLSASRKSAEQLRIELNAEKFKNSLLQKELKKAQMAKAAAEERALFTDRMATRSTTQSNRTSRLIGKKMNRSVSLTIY
# YANK2 = target: T14, YANK2 (Homo sapiens, UniProt Q9NY57); test: KINOMEscan; format: binding; conditions: 1 μM of compound 4; read-out: POC
# T14 construct: purchased Eurofins DiscoverX
# T14 sequence (Q9NY57 whole entry): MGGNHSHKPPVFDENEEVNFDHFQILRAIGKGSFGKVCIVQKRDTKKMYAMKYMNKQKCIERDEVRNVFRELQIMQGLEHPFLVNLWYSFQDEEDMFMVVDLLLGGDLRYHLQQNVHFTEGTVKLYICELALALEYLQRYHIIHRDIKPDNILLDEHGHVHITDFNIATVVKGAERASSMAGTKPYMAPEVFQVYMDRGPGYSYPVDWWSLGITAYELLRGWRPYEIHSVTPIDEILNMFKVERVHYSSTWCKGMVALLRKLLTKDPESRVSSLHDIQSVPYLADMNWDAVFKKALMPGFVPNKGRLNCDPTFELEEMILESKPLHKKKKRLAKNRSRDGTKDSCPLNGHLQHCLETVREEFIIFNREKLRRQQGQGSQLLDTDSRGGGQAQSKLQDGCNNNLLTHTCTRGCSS
# [5] = test system: EGFR (L858R/T790M) in H1975 lung cancer cells; test: Western blotting of EGFR, ERK1/2 and AKT phosphorylation; format: cell-based, human; conditions: 6 hours treatment
# Method: FIG. 2. […] All experiments performed after 6 hours treatments of inhibitors or DMSO controls and Western blots are representative of at least three independent experiments.
# Western blotting. Cells were collected and lysed with lysis buffer (5M NaCl, 1M TRIS pH 8.0, 10% SDS, 10% Triton X-100 and a tablet of protease inhibitors) and processed for Western blotting analysis. Primary antibodies used; phospho-EGFR (Tyr1068; #2234, 1:1,000), EGFR (#4267; 1:1,000), phospho-AKT (Ser473; #4060, 1:1,000), AKT (#9272, 1:1,000), phospho-ERK1/2 (Thr202/Tyr204; #4370, 1:1,000), and ERK1/2 (#4695, 1:1,000) antibodies; were purchased from Cell Signaling Technology. Secondary Goat anti-rabbit IgG starbright blue 700 and Anti-tubulin hFAB Rhodamine Tubulin were purchased from Bio-rad.
smiles,measurement,setting,value
"C=CC(=O)Nc1ccc(OC)c(Nc2cc(-c3[nH]c(CC)nc3-c3cccc(NC(=O)c4cccc5c4NC(=O)c4ccccc4N5)c3)ccn2)c1 [Compound 4, N-(3-(5-(2-((5-Acrylamido-2-methoxyphenyl)amino)pyridin-4-yl)-2-ethyl-1H-imidazol-4-yl)phenyl)-11-oxo-10,11-dihydro-5H-dibenzo[b,e][1,4]diazepine-9-carboxamide]",remaining binding at 1 µM,[1],90%
same,remaining binding at 1 µM,ACVR1B,85%
same,remaining binding at 1 µM,ALK(C1156Y),87%
same,remaining binding at 1 µM,BMPR1A,85%
same,remaining binding at 1 µM,CAMKK2,95%
same,remaining binding at 1 µM,CIT,6.3%
same,remaining binding at 1 µM,CLK4,100%
same,remaining binding at 1 µM,CSNK1A1,56%
same,remaining binding at 1 µM,DAPK2,100%
same,remaining binding at 1 µM,DCAMKL2,100%
same,remaining binding at 1 µM,EPHA8,98%
same,remaining binding at 1 µM,EPHB4,100%
same,remaining binding at 1 µM,GRK2,100%
same,remaining binding at 1 µM,IKK-epsilon,100%
same,remaining binding at 1 µM,INSRR,87%
same,remaining binding at 1 µM,LOK,49%
same,remaining binding at 1 µM,LRRK2(G2019S),100%
same,remaining binding at 1 µM,MAPKAPK2,100%
same,remaining binding at 1 µM,MLK3,97%
same,remaining binding at 1 µM,NIK,100%
same,remaining binding at 1 µM,PRKD1,42%
same,remaining binding at 1 µM,ROS1,80%
same,remaining binding at 1 µM,[2],83%
same,remaining binding at 1 µM,[3],97%
same,remaining binding at 1 µM,S6K1,100%
same,remaining binding at 1 µM,SRMS,61%
same,remaining binding at 1 µM,[4],100%
same,remaining binding at 1 µM,WEE1,85%
same,remaining binding at 1 µM,YANK2,63%
same,"EGFR, ERK1/2 and AKT phosphorylation (Western blot)",[5],"most effective in suppression of active EGFR (pY1068) as well as downstream pERK; also recorded: reduces EGFR (L858R/T790M), ERK1/2, and AKT phosphorylation"

# Reference: patent publication US20260224588A1, “BENZODIAZEPINONE-DERIVED INHIBITORS OF EGFR AND HER2” (The Research Foundation for the State University of New York, priority 2023, published 2026)
